{
  "source": "patent US20260374818A1",
  "about": "“CATIONIC PEPTIDES WITH BROAD SPECTRUM ACTIVITY” (priority 2023, published 2026)",
  "key": {"[1]": {"tested_on": "3-day-old oral plaque biofilms", "assay": "Oral plaque biofilm model, brief (1 minute) exposure, dead cell volume", "assay_type": "cell-based", "settings": "10 μg/mL, 1 minute (FIG. 11)"}, "[2]": {"tested_on": "3-day-old oral plaque (multispecies) biofilms", "assay": "Oral plaque biofilm model, long-term (1-3 days) exposure, dead cell volume", "assay_type": "cell-based", "settings": "10 μg/mL, 1 or 3 days (FIG. 10)"}, "[3]": {"tested_on": "peripheral blood mononuclear cells (PBMCs)", "assay": "Cytotoxicity (LDH release), PBMCs"}, "[4]": {"assay": "Peptide aggregation in RPMI + 10% FBS with PBMCs (microscopy)", "assay_type": "physicochemical", "settings": "overnight", "procedure": "Peptide Aggregation: Peptide aggregation was assessed qualitatively by examining samples of peptides mixed with PBMCs following overnight incubation at 37 °C and 5% CO2. All samples were prepared in RPMI media containing 10% FBS the same manner as the cytotoxicity assays described above. Visualization of aggregates was done using a Nikon Eclipse TS100 Inverted Microscope at 10× magnification.\nIn aggregation studies, peptides were added to PBMCs in RPMI media containing 10% FBS and incubated overnight at 37 °C in 5% CO2.\nThe peptides were also evaluated for their tendency to aggregate when added to RPMI tissue culture media containing 10% fetal bovine serum in the presence of PBMCs. Peptides were added to PBMCs in RPMI media containing 10% FBS and incubated overnight at 37 °C in 5% CO2. […] Compared to a highly aggregation prone peptide, 1018 [Haney, E. F., et al. (2017). Aggregation and its influence on the immunomodulatory activity of synthetic innate defense regulator peptides.\nAs with the DJK-5 derivatives above, the AB103-D derivatives were evaluated for their tendency to aggregate when added to RPMI tissue culture media containing 10% fetal bovine serum in the presence of PBMCs. Peptides were added to PBMCs in RPMI media containing 10% FBS and incubated overnight at 37 °C in 5% CO2."}, "red blood cells": {"tested_on": "red blood cells", "assay": "Hemolysis", "assay_type": "cell-based, human", "settings": "4 hours", "procedure": "Hemolysis: Peptide induced hemolysis was evaluated according to methods described previously [Hilchie, A. L., et al. (2016). Mastoparan is a membranolytic anti-cancer peptide that works synergistically with gemcitabine in a mouse model of mammary carcinoma. Biochimica Et Biophysica Acta, 1858(12), 3195-3204]. Briefly, red blood cells were obtained, with human ethics approval, from the blood of healthy volunteers collected in a sodium heparin tube and then rinsed three times in PBS, centrifuging between washes, to obtain the hematocrit (100% RBC). A 2.5% RBCs suspension was exposed to peptide at varying concentrations and incubated at 37 C in a 5% CO2 humidified atmosphere for 4 hours. Supernatants were collected following centrifugation (1100 rpm) and transferred to a flat bottom microtitre plate. The absorbance (490 nm) of each supernatant was measured on a BioTek Epoch Microplate Spectrophotometer. Percent hemolysis was calculated by comparing the absorbance arising from peptide treated cells to RBCs treated with […] (0% hemolysis) or lysed with 1% Triton X-100 (100% hemolysis)."}, "[5]": {"tested_on": "MRSA biofilms (USA300 LAC)", "settings": "SPOT peptides"}, "[6]": {"assay": "Subdermal murine toxicity model", "settings": "1 hour after subcutaneous administration; comparator DJK-5", "procedure": "FIGS. 14A-14B show murine subdermal toxicity assessment of AB103-D derived peptides. Clinical scores were recorded for each peptide treated mouse one hour after peptide administration (FIG. 14A). […] The presence of a cyst or lesion was recorded 16 hours after peptide administration and the size of the cyst was measured using calipers (FIG. 14B). Data shown are the mean of two independent replicates at a peptide dose of 4 mg/kg.\nSubdermal murine toxicity model: A subdermal toxicity mouse model was used to evaluate whether peptides induced localized toxicity of treated cutaneous tissue. Mice were anesthetized with 2.5-3% isoflurane and their fur was removed by shaving followed by application of a chemical depilatory. […] Mice were visually assessed and received clinical scores for a battery of signs or symptoms (activity/behaviour change, appearance/grooming, hydration, pain, cyst formation), for which a score of zero was given to animals that appeared normal. Animals were weighed and clinical scores were totalled. Following an overnight (16 h) incubation, mice were scored and weighed then euthanized with CO2 followed by cervical dislocation. Mice were imaged and cysts (swollen, inflamed tissue) were measured using a caliper. Animal experiments were performed in accordance with the Canadian Council on Animal Care (CCAC) guidelines and were approved by the University of British Columbia Animal Care Committee. Female CD-1 mice were purchased from Charles River Laboratories, Inc. (Wilmington, MA). All mice were 8 weeks of age and weighed 25±5 g at the time of the experiment. Animals were group housed in cohorts of three to four littermates. Standard animal husbandry practices were employed."}, "MRSA USA300 biofilms": {"tested_on": "MRSA USA300 biofilms", "assay": "Biofilm inhibition by >95% pure peptides (crystal violet), MRSA", "assay_type": "cell-based, methicillin resistant Staphylococcus aureus", "settings": "MRSA USA300 biofilms, >95% pure peptides, 10% TSB + 0.1% glucose"}, "[7]": {"tested_on": "P. aeruginosa PAO1 biofilms", "settings": "P. aeruginosa PAO1 biofilms; >95% pure peptides; crystal violet; BM2 minimal media"}, "[8]": {"tested_on": "P. aeruginosa PAO1 biofilms", "assay": "Biofilm inhibition by SPOT-synthesized AB103-D variants (crystal violet), P. aeruginosa", "assay_type": "cell-based, Pseudomonas aeruginosa", "settings": "P. aeruginosa PAO1, SPOT peptides"}, "P. aeruginosa PAO1": {"tested_on": "P. aeruginosa PAO1", "assay": "Biofilm inhibition (at least 80%), P. aeruginosa", "assay_type": "cell-based, Pseudomonas aeruginosa", "settings": "n = 4, BM2 minimal media, 18-24 hours, crystal violet"}, "[9]": {"tested_on": "Klebsiella pneumonia KPLN649", "assay": "Biofilm inhibition (at least 80%), K. pneumonia", "assay_type": "cell-based", "settings": "K. pneumoniae KPLN649; n = 3; BM2 minimal media; 48 hours; crystal violet"}, "E. coli O157:H7": {"tested_on": "E. coli O157:H7", "assay": "Biofilm inhibition (at least 80%), E. coli", "assay_type": "cell-based, Escherichia coli", "settings": "n = 3, BM2 minimal media, 18-24 hours, crystal violet"}, "[10]": {"tested_on": "Enterococcus faecium #2-1", "assay": "Biofilm inhibition (at least 80%), E. faecium", "assay_type": "cell-based", "settings": "E. faecium #2-1; n = 3; TSB + 1% glucose; 48 hours; crystal violet"}, "MRSA USA300": {"tested_on": "MRSA USA300", "assay": "Biofilm inhibition (at least 80%), MRSA", "assay_type": "cell-based, methicillin resistant Staphylococcus aureus", "settings": "n = 4, 10% TSB + 0.1% glucose, 18-24 hours, crystal violet"}, "[11]": {"tested_on": "Enterobacter cloacae 218R1", "assay": "Biofilm inhibition (at least 80%), E. cloacae", "assay_type": "cell-based", "settings": "E. cloacae 218R1; n = 3; BM2 minimal media; 18-24 hours; crystal violet"}, "[12]": {"tested_on": "Acinetobacter baumannii Ab5075", "assay": "Biofilm inhibition (at least 80%), A. baumannii", "assay_type": "cell-based", "settings": "n = 4, BM2 minimal media, 18-24 hours, crystal violet"}},
  "note": "Where a SMILES comes first, the peptide text is derived from it. [ ]: non-standard residue; d: D form.",
  "data": [
    {"smiles": "CC[C@@H](C)[C@@H](NC(=O)[C@@H](C)NC(=O)[C@@H](CCCNC(=N)N)NC(=O)[C@@H](Cc1c[nH]c2ccccc12)NC(=O)[C@@H](CCC(N)=O)NC(=O)[C@H](N)C(C)C)C(=O)N[C@@H](C(=O)N[C@@H](C(=O)N[C@H](CCCNC(=N)N)C(=O)N[C@@H](C(=O)N[C@@H](C(=O)N[C@H](CCCNC(=N)N)C(N)=O)[C@H](C)CC)C(C)C)C(C)C)[C@H](C)CC", "note": "[AB106-D, vqwraiivrvir-NH2] (H-[dV][dQ][dW][dR][dA][dI][dI][dV][dR][dV][dI][dR]-NH2)", "values": [
      {"measurement": "Killing of oral plaque biofilms, brief exposure", "setting": "[1]", "result": "comparable to or better than peptide DJK-5"},
      {"measurement": "Killing of oral plaque biofilms, long-term exposure", "setting": "[2]", "result": "activity comparable to peptide DJK-5"},
      {"measurement": "Cytotoxicity (LDH)", "setting": "[3]", "result": "only marginally toxic at the highest peptide concentration evaluated"},
      {"measurement": "Peptide aggregation", "setting": "[4]; 200 μg/ml or highest concentration", "result": "marginal peptide aggregation"},
      {"measurement": "Hemolysis", "setting": "red blood cells", "result": "only marginally toxic at the highest peptide concentration evaluated"}
    ]},
    {"smiles": "CC[C@@H](C)[C@@H](NC(=O)[C@H](NC(=O)[C@@H](CCCNC(=N)N)NC(=O)[C@H](NC(=O)[C@@H](CCCNC(=N)N)NC(=O)[C@H](NC(=O)[C@H](NC(=O)[C@@H](CCCNC(=N)N)NC(=O)[C@@H](Cc1c[nH]c2ccccc12)NC(=O)[C@@H](CCC(N)=O)NC(=O)[C@H](N)C(C)C)C(C)C)[C@H](C)CC)C(C)C)C(C)C)C(=O)N[C@H](CCCNC(=N)N)C(N)=O", "note": "[AB108-D, vqwrvirvrvir-NH2] (H-[dV][dQ][dW][dR][dV][dI][dR][dV][dR][dV][dI][dR]-NH2)", "values": [
      {"measurement": "Biofilm inhibitory activity compared to DJK5", "setting": "[5]; MRSA, three concentrations (FIG. 1)", "result": "only slightly lower than the DJK5 sample"}
    ]},
    {"smiles": "CC[C@@H](C)[C@@H](NC(=O)[C@@H](C)NC(=O)[C@@H](CCCNC(=N)N)NC(=O)[C@@H](Cc1c[nH]c2ccccc12)NC(=O)[C@@H](CCC(N)=O)NC(=O)[C@H](NC(=O)[C@@H](CCCNC(=N)N)NC(=O)[C@H](NC(=O)[C@H](NC(=O)[C@@H](CCCNC(=N)N)NC(=O)[C@H](NC(=O)[C@H](N)CCCCN)C(C)C)C(C)C)[C@H](C)CC)C(C)C)C(N)=O", "note": "[AB117-D, kvrvirvqwrai] (H-[dK][dV][dR][dV][dI][dR][dV][dQ][dW][dR][dA][dI]-NH2)", "values": [
      {"measurement": "Clinical score", "setting": "[6]", "result": "< 2"},
      {"measurement": "minimum inhibitory concentration of peptide that inhibited at least 90% of biofilm growth (MBIC90)", "setting": "MRSA USA300 biofilms", "result": 0.5, "unit": "µM"},
      {"measurement": "minimum inhibitory concentration of peptide that inhibited at least 90% of biofilm growth (MBIC90)", "setting": "[7]", "result": 8, "unit": "µM"},
      {"measurement": "Activity against PAO1 biofilms compared to AB103-D", "setting": "[8]", "result": "activity superior to that of AB103-D"},
      {"measurement": "Peptide aggregation", "setting": "[4]; 50 μg/ml", "result": "slightly"},
      {"measurement": "Better activity vs. MRSA cf. AB103-D", "setting": "[5]; MRSA biofilms", "result": "~2", "unit": "fold"}
    ]},
    {"smiles": "CN[C@H](CC(C)C)C(=O)N[C@H]1C(=O)N[C@@H](CC(N)=O)C(=O)N[C@H]2C(=O)N[C@H]3C(=O)N[C@H](C(=O)N[C@H](C(=O)O)c4cc(O)cc(O)c4-c4cc3ccc4O)[C@H](O)c3ccc(c(Cl)c3)Oc3cc2cc(c3O[C@@H]2O[C@H](CO)[C@@H](O)[C@H](O)[C@H]2O[C@H]2C[C@](C)(N)[C@H](O)[C@H](C)O2)Oc2ccc(cc2Cl)[C@H]1O", "note": "[VAN]", "values": [
      {"measurement": "Peptide/Antibiotic Concentration where at least 80% of biofilm growth was inhibited", "setting": "P. aeruginosa PAO1", "result": ">256", "unit": "µg/mL"},
      {"measurement": "Peptide/Antibiotic Concentration where at least 80% of biofilm growth was inhibited", "setting": "[9]", "result": 128, "unit": "µg/mL"},
      {"measurement": "Peptide/Antibiotic Concentration where at least 80% of biofilm growth was inhibited", "setting": "E. coli O157:H7", "result": 16, "unit": "µg/mL"},
      {"measurement": "Peptide/Antibiotic Concentration where at least 80% of biofilm growth was inhibited", "setting": "[10]", "result": ">256", "unit": "µg/mL"},
      {"measurement": "Peptide/Antibiotic Concentration where at least 80% of biofilm growth was inhibited", "setting": "MRSA USA300", "result": 0.25, "unit": "µg/mL"},
      {"measurement": "Peptide/Antibiotic Concentration where at least 80% of biofilm growth was inhibited", "setting": "[11]", "result": 64, "unit": "µg/mL"},
      {"measurement": "Peptide/Antibiotic Concentration where at least 80% of biofilm growth was inhibited", "setting": "[12]", "result": 8, "unit": "µg/mL"}
    ]}
  ]
}
